{
  "source": "patent US20110294890A1",
  "about": "“Neramexane for the treatment or prevention of inner ear disorders” (MERZ PHARMA GmbH & CO. KGaA, priority 2010, published 2011)",
  "test_system": "subjects with subjective tinnitus of at least moderate severity",
  "experiment": "Double blind placebo controlled Phase III clinical trial of neramexane for treatment of tinnitus (TBF-12 total score)",
  "format": "in vivo, human",
  "conditions": "for Change in the TBF-12 total score from baseline to Week 17/EOT, LSmean: 50/75 mg/d, mean adjusted for covariates (ANCOVA); for Change in the TBF-12 total score from baseline to Week 17/EOT, LSmean / Change in the TBF-12 total score from baseline to Week 17/EOT, Mean change (SD): 17 weeks; for Change in the TBF-12 total score from baseline to Week 17/EOT, LSmean / Change in the TBF-12 total score from baseline to Week 17/EOT, Mean change (SD) / Comparison between treatment groups, LSmean (ner − pla), change in TBF-12 total score: FAS-LOCF; for Change in the TBF-12 total score from baseline to Week 17/EOT, Mean change (SD): neramexane mesylate 50/75 mg/d by body weight; for Comparison between treatment groups, LSmean (ner − pla), change in TBF-12 total score: estimated difference Neramexane − Placebo from ANCOVA",
  "protocol": "The objective of this clinical trial was to assess the efficacy of neramexane as a treatment for tinnitus. The primary objective of this 17 weeks double-blind, randomized placebo-controlled study was to compare the efficacy, tolerability and safety of neramexane mesylate at two different, weight-adapted dosages (50 or 75 mg/d) with placebo in subjects with subjective tinnitus of at least moderate severity.\nIn a double-blind, multicenter, randomized, placebo-controlled, parallel-group study, the efficacy of neramexane in subjects suffering from tinnitus of at least moderate severity was assessed. A total of 411 patients, who fulfilled particular inclusion criteria and met none of particular exclusion criteria, were randomized to one of two double-blind treatment groups (neramexane mesylate 50 or 75 mg/d depending on body weight, or placebo).\nSubjects were treated for 17 weeks with neramexane or placebo including a four- resp. five-week up-titration period, depending on study drug dose, followed by 30 to 35 days treatment-free observational period. Alternatively to treatment-free observational period, subjects could immediately at Week 17 start with a one-year open label treatment study.\nMain inclusion criteria were: • Diagnosis of “subjective tinnitus” • Tinnitus duration of at least 3 months and less or equal to 12 months (subacute tinnitus) • Persistent, uni- or bilateral tinnitus • THI-12≧9 (=at least moderate tinnitus severity) • Hospital Anxiety and Depression (HADS) subscores for depression ≦10 and for anxiety ≦10\nMain exclusion criteria were: • Intermittent or pulsatile tinnitus • Tinnitus as a concomitant symptom of an otological/neurological disease • Concomitant tinnitus treatment • Application for a pension/retirement pay or granted pension/retirement because of tinnitus.\nPatients with a target daily dose of 50 mg neramexane mesylate (<90 kg body weight) were to reach steady state after four weeks, patients with a target total daily dose of 75 mg neramexane mesylate (≧90 kg body weight) were to reach steady state after five weeks of treatment. For patients who experienced dose limiting adverse events with the 75 mg dose, the dosage was reduced by switching the patient to 50 mg/day. Patients unable to tolerate a minimum dosage of 50 mg/day discontinued.\nPatient eligibility for the study was evaluated via a check of inclusion/exclusion criteria. The subject completed a Tinnitus-Beeinträchtigungs-Fragebogen (TBF-12=Tinnitus. Handicap Inventory (THI-12)) (i.e., a 12-item modified and validated version (Greimel K V et al., Tinnitus-Beeinträchtigungs-Fragebogen (TBF-12). Manual. Frankfurt am Main: Swets & Zeitlinger B. V.; 2000) of the 25-item Tinnitus Handicap Inventory or THI (Newman C W, et al. Development of the Tinnitus Handicap Inventory. Arch Otolaryngol Head Neck Surg 1996; 122(2): 143-148; Newman C W, et al. Psychometric adequacy of the Tinnitus Handicap Inventory (THI) for evaluating treatment outcome. J Am Acad Audiol 1998; 9(2): 153-160.)). The TBF-12 items can be grouped in 2 factorial scores: an emotional-cognitive and a functional-communicational factor. At Visit 1. patients also completed a Tinnitus Rating Scale (TRS, Likert scores on Tinnitus Loudness, Tinnitus Impact on Life, and Tinnitus Annoyance), and the Hospital Anxiety and Depression Scale Audiology/psychoacoustic measurements were performed unless results from previous examinations performed no more than one year prior to Screening were available.\nVisit 7 (Week 17, end of treatment (EOT)). This visit occurred at the end of the 12-week fixed-dose double-blind treatment period. This visit was also to be performed for patients who discontinued prematurely. The subject was asked about adverse events and changes in concomitant medication/disease, which changes are documented. A clinical laboratory evaluation was performed as well as ECG and physical examination (including body weight). Blood samples were collected in order to determine neramexane concentration. […]",
  "data": [
    {"compound": "CC1(C)CC(C)(C)CC(C)(N)C1", "note": "[Neramexane, 1-amino-1,3,3,5,5-pentamethylcyclohexane]", "values": [
      {"measurement": "Change in the TBF-12 total score from baseline to Week 17/EOT, LSmean", "setting": "Females, N=74", "value": "−3.8"},
      {"measurement": "Change in the TBF-12 total score from baseline to Week 17/EOT, Mean change (SD)", "setting": "Females, N=74", "value": "−3.1 (4.2)"},
      {"measurement": "Comparison between treatment groups, LSmean (ner − pla), change in TBF-12 total score", "setting": "Females, P-value 0.0122", "value": "−1.7"},
      {"measurement": "Change in the TBF-12 total score from baseline to Week 17/EOT, LSmean", "setting": "Total population, N=203", "value": "−3.0"},
      {"measurement": "Change in the TBF-12 total score from baseline to Week 17/EOT, Mean change (SD)", "setting": "Total population, N=203", "value": "−2.5 (4.3)"},
      {"measurement": "Comparison between treatment groups, LSmean (ner − pla), change in TBF-12 total score", "setting": "Total population, P-value 0.1997", "value": "−0.5"},
      {"measurement": "Improvement for the treatment of tinnitus in subgroups of women", "setting": "women 26 to 65 or 46 to 65 years of age, and/or free from clinical signs of depression (HADS-D 7 or less)", "value": "an improvement"},
      {"measurement": "Improvement for the treatment of tinnitus in women (TBF-12 total score)", "setting": "women, compared to the effect found for the total patient population", "value": "statistically significant improvement"}
    ]}
  ]
}
